Experimental data reported in patent US7297551B2, “Recombinant proteins and peptides for endotoxin biosensors, endotoxin removal, and anti-microbial and anti-endotoxin therapeutics” (priority 1998, dated 2007).
Where two headings read alike, the source gives them in different places. Peptide text beside a SMILES is read from it.

How the values were obtained:
[1] = tested on: LPS-induced hTNF-α secretion from THP-1; experiment: Inhibition of LPS-induced hTNF-α secretion from PMA-treated THP-1 cells; assay type: cell-based, human
Experimental: […] THP-1 cells were grown in RPMI 1640 medium supplemented with 10% FBS, penicillin (100 U/ml) and streptomycin (0.1 mg/ml), at 37° C. in a humidified environment in the presence of 5% CO2. The cells were maintained at a density between 2.5×10^5 and 2.5×10^6 cells/ml.
THP-1 cells were prepared for experiment by addition of a concentrated stock solution of phorbol myristate acetate (PMA, 0.3. mg/ml in dimethyl sulfoxide) to cell suspension to give a final concentration of 30 ng/ml PMA and 0.01% dimethyl sulfoxide (25). PMA-treated cell suspensions were immediately plated into 96-well microtitre plate at a density of 4×10^5 cells/ml and allowed to differentiate for 48 hours at 37° C. […] At indicated times, the culture medium was collected.

[2] = Protection of galactosamine-sensitized mice from LPS-induced lethality; assay type: in vivo, C57BL/6J mice; conditions: 75 μg peptide, 2 ng LPS pre-incubated with peptide 30 minutes
Experimental: The anti-endotoxin potency of SSCrFCES was investigated in C57BL/6J mice. Mice are typically resistant to endotoxin. However, the sensitivity of mice to endotoxin can be enhanced >1,000-fold by co-injection with a liver-specific inhibitor, galactosamine (31). […] […] Lethality was observed over 3 days after injection. Statistical analysis were performed using the Kaplan-Meier test (32) and log rank pairwise test.

P. aeruginosa = experiment: Microbicidal concentration (MBC) assay; assay type: cell-based, Pseudomonas aeruginosa
Experimental: Test strains cultured on Mueller-Hinton agar (MHA, Becton Dickinson, USA) were inoculated into 10 ml Mueller-Hinton broth (MHB, Becton Dickinson, USA) and grown overnight at 37° C. in a shaker incubator (Model 4536, Forma Scientific, Inc., USA) at 230 rpm. Overnight broth cultures were diluted to give a final cell density of 10^5 colony forming units/ml (cfu/ml). One hundred microliters of the bacterial suspension was dispensed into sterile polypropylene 8-strip PCR-tubes (Quality Scientific Plastics, USA). Eleven microliters of serially diluted sushi peptides, ranging in final concentrations of 0.03-4 μg/ml, were then added. The peptides were constituted at 10 times the required test concentrations in 0.01% acetic acid and 0.2% bovine serum albumin (BSA). Positive controls were cultures without test peptides. Uninoculated MHB was used as negative control. All tests were carried out in triplicate.
Cultures were incubated at 37° C. for 18-24 h, with the PCR-tubes held in horizontal position and shaken at 230 rpm. Cell counts were determined by standard drop-count method. The killing efficiency for the four sushi peptides were calculated based on standard drop-count method.

P. aeruginosa ATCC 27853 = experiment: Killing rate assay; assay type: cell-based, Pseudomonas aeruginosa; conditions: peptides at 0.06 μg/ml, initial 10^9 cfu/ml
Excerpt: The killing rate assay was adapted from the MBC test above, with different contact time of peptides with the bacteria arrested at regular intervals and plated for colony count. An initial density of 10^9 cfu/ml was used. […] This is one of the important features of an effective therapeutic agent.

Human erythrocytes = experiment: Hemolysis assay, human erythrocytes; assay type: cell-based; conditions: at 100 μg/ml
Experimental: Human and rabbit erythrocytes were both used to test the hemolytic activities of the peptides. Whole blood was collected in heparinized sterile syringe, transferred to sterile borosilicate tube and centrifuged at 1200 g for 5 minutes at 4° C. The supernatant including the leukocytes above the erythrocyte pellet was discarded. The erythrocytes were washed 3 times using three volumes of prechilled pyrogen-free saline (PFS). An erythrocyte suspension at 0.4% was prepared for the hemolysis assay. Serial two-fold dilutions of the peptides was prepared in PFS and 100 μl aliquots were added to equal volumes of 0.4% erythrocyte solution in a 96-well microtiter plate (Nunclon™ Δ surface, Nunc) to give final peptide concentrations ranging from 6 to 100 μg/ml. The mixtures were incubated at 37° C. for 1 h. The intact erythrocytes were then pelleted by centrifuging at 1000 g for 5 min. One hundred μl of the supernatant was transferred to a new 96-well microtiter plate and the amount of hemoglobin released into the supernatant was determined by reading the absorbance at 414 nm using a SPECTRAmax™ 340 plate reader with SOFTmax PRO™ version 1.2.0. A positive control with 100 μl of 0.4% erythrocyte lysed in 1% Triton-X 100 was taken as 100% lysis. The negative control was the erythrocytes in PFS alone, which gave minimal lysis. This was taken as 0%.

[3] = Hill's plot for interaction between synthetic peptides and lipid A; assay type: binding; conditions: number of peptide molecules to 1 LPS molecule

With `CC[C@H](C)[C@H](NC(=O)[C@H](CCCCN)NC(=O)[C@H](C)NC(=O)[C@H](CCCCN)NC(=O)CNC(=O)[C@H](CCCCN)NC(=O)[C@H](CC(C)C)NC(=O)[C@H](CCCCN)NC(=O)[C@H](Cc1ccccc1)NC(=O)CN)C(=O)N[C@@H](CO)C(=O)N[C@@H](CS)C(=O)N[C@@H](CC(C)C)C(=O)N1CCC[C@H]1C(=O)N[C@@H](CC(N)=O)C(=O)NCC(=O)N[C@@H](CCC(N)=O)C(=O)N[C@@H](Cc1c[nH]c2ccccc12)C(=O)N[C@@H](CO)C(=O)N[C@@H](CC(N)=O)C(=O)N[C@@H](Cc1ccccc1)C(=O)N1CCC[C@H]1C(=O)N1CCC[C@H]1C(=O)N[C@@H](CCCCN)C(=O)N[C@@H](CS)C(=O)N[C@H](C(=O)N[C@@H](CCCNC(=N)N)C(=O)N[C@@H](CCC(=O)O)C(=O)N[C@@H](CS)C(=O)N[C@@H](C)C(=O)N[C@@H](CCSC)C(=O)N[C@H](C(=O)N[C@@H](CO)C(=O)N[C@@H](CO)C(=O)O)C(C)C)[C@@H](C)CC` [S1Δ] (H-GFKLKGKAKISCLPNGQWSNFPPKCIRECAMVSS-OH; N-terminus and C-terminus assumed) the IC50 ([1]; peptide needed for 50% suppression, read-out: Suppression of LPS-Induced cytokine TNF-α (50%)) was 53 µM, the IC50 ([1]; read-out: 50% inhibition of LPS-induced TNF-α release, 10 ng/ml LPS, serum-free) was 53.3 µM and the “Mouse Protection Assay” value [2] was 40% at 75. For the same compound, the “Anti-microbial Potency P. aeruginosa MBC90” value (P. aeruginosa; MBC) was 0.06 µg/mL, the MBC90 (P. aeruginosa; P. aeruginosa) was “(16 nM)” and the “Killing rate (time to achieve MBC90)” value (P. aeruginosa ATCC 27853) was 7 min. The Hemolytic activity (Human erythrocytes) was “negligible haemolysis” and the “Stoichiometry of Binding Cooperativity Hill's Coefficient” value [3] was 1.06.
